Patent publication US20220409743A1, “VIRUS-MIMETIC NANOPARTICLES” (UNIVERSITÄT REGENSBURG, priority 2019, published 2022)

Assays:
sGC = biological target: T1, sGC (Rattus norvegicus, UniProt P20595); assay: Western Blot of sGC levels in mesangial cells; assay type: cell-based; conditions: 24 h incubation; free CCG 2 μM, NPs 0.2 μM CCG
T1 construct: endogenous in cells; host or cells: mesangial cells
T1 sequence (P20595 1-619): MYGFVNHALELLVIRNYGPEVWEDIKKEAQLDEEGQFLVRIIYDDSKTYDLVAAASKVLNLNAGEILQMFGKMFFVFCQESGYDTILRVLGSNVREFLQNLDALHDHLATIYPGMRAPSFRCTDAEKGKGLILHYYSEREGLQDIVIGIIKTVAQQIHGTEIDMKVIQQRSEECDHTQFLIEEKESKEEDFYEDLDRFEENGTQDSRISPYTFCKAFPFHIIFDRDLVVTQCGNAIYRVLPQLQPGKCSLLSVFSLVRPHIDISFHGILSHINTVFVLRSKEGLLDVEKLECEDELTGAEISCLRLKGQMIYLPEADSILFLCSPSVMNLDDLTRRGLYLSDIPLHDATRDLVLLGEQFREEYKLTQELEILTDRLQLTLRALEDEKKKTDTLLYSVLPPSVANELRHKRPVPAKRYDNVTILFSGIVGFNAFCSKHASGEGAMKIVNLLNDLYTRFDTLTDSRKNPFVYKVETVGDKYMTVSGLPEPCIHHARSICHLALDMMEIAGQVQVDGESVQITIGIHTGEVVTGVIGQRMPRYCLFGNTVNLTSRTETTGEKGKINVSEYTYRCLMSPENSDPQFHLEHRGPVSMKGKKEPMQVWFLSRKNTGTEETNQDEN
T1 sequence (P19686 1-690 partner): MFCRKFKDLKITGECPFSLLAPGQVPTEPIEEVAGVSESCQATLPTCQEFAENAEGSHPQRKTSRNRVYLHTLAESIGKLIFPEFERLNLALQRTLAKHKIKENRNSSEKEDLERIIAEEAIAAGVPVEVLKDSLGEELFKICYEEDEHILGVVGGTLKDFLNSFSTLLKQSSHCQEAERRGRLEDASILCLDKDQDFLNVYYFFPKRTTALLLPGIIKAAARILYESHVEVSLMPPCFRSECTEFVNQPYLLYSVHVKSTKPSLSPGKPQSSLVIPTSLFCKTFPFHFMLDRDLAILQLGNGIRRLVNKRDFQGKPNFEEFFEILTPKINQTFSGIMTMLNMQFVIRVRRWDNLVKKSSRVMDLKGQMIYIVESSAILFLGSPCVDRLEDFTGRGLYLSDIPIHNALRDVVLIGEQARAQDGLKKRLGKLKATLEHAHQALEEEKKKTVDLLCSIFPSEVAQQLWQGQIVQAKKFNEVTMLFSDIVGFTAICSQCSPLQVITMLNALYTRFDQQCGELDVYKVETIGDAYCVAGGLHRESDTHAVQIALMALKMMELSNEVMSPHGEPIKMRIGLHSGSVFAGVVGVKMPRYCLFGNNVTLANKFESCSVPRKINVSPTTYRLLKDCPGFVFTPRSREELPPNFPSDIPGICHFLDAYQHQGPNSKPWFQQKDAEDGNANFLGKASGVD
Protocol: (§1) In the inventors' experimental set-up, CCG was initially encapsulated in hetero-multivalent EXPcRGD NPs. Resulting NPs carried approximately 500-700 CCG molecules per NP (data not shown). In all following experiments, the administration of free cinaciguat at a concentration of 2 μM was compared to CCG-loaded EXPcRGD NPs at a concentration of approximately 0.5 nM (equaling 0.2 μM of CCG) and drug-free EXPcRGD control NPs (FIG. 30). […] CCG-carrying NPs however carried only 10% of respective CCG amount to test a possible drug delivery effect.
To assess the effect of CCG-loaded EXPcRGD NPs on target sGC, mesangial cells were initially incubated for 24 h and protein quantity was assessed using Western Blot analysis.

PGK1-α = assay: Western Blot of VASP phosphorylation (PGK1-α activity); assay type: cell-based; conditions: free CCG 2 μM, NPs 0.2 μM CCG
Protocol: To assess PGK1-αactivity, phosphorylation of its substrate vasodilator-stimulated phosphoprotein (VASP) was assessed. […] (n=3; ****P<0.0001; ***P<0.001; **P<0.01; *P<0.05).
as §1

mesangial cells = assay: Proliferation assay of TGF-β stimulated mesangial cells; assay type: cell-based; conditions: 4 h pre-incubation, 10 ng mL^−1 TGF-β 48 h
Protocol: (§2) Finally, the anti-fibrotic and anti-proliferative potential of a NP-assisted CCG delivery was analyzed. In that regard, mesangial cells were initially incubated for 4 h either with free CCG, CCG-loaded EXPcRGD NPs or control NPs without encapsulated drug. After 4 h, 10 ng mL^−1 of transforming growth factor β (TGF-β) were added for 48 h to induce a fibrotic and hyperproliferative remodeling.

α-SMA = assay: Western Blot / LSM of fibrosis marker α-SMA after TGF-β; assay type: cell-based; conditions: 4 h pre-incubation, 10 ng mL^−1 TGF-β 48 h
Protocol: as §2

Collagen I = assay: Western Blot of fibrosis marker Collagen I after TGF-β; assay type: cell-based; conditions: 4 h pre-incubation, 10 ng mL^−1 TGF-β 48 h
Protocol: as §2

AT1R = biological target: T2, AT1R (Rattus norvegicus, UniProt P25095); assay: Intracellular calcium measurement (Fura-2): ligand affinity and particle avidity for the AT1R; conditions: read-out: IC50, ligand affinity for the AT1R; free ligand; rMCs incubated 30 min prior to stimulation with Ang-II
T2 sequence (P25095 1-359): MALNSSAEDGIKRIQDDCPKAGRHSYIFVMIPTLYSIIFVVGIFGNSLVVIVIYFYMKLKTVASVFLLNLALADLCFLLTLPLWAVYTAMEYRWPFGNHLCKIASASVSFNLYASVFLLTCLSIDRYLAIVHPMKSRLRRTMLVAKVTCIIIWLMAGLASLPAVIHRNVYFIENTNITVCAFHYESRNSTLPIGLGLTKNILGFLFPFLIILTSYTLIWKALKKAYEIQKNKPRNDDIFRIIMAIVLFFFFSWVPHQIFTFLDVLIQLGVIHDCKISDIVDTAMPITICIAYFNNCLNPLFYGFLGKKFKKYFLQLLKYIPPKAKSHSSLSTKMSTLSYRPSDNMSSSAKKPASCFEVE
Protocol: In order to assess the AT1R interaction of the different NP formulations a ratiometric Fura-2 Ca^2+ chelator method was used as previously described [1, 3] using AT1R positive rMCs. For that purpose, rMCs were seeded in T-150 flasks (Corning) and incubated until confluent. […] Cells were incubated for 1 hour, light protected, with gentle agitation (50 rpm). Afterwards, the cell suspension was washed with DPBS by centrifugation (2×, 200 g, 5 min, RT), and resuspended in Leibovitz medium supplemented with 2.5 mM Probenecid at a count of 2 million cells/mL. […] To determine the kinetics of the AT1R interaction (FIG. 3D) the same procedure was used, but the samples were incubated for different time periods (from 5 to 320min) with the cells. The maximal and minimal signal ratio, was determined by stimulating the cells with 0.1% Triton-X 100 or 0.1% Triton-X 100 with 45 mM ethylene glycol-bis(2-aminoethylether)-N,N,N′,N′-tetraacetic acid (EGTA), respectively.

Row | sGC levels (sGC) | IC50 (AT1R) | Compound | P-VASP/VASP ratio (PGK1-α) | Effect on TGF-β induced hyperproliferation (mesangial cells) | α-SMA levels compared to the TGF-β control (α-SMA) | Collagen I levels compared to the TGF-β control (Collagen I)
1 | substantial increase in sGC levels | – | O=C(O)CCCCN(CCc1ccccc1OCc1ccc(CCc2ccccc2)cc1)Cc1ccc(C(=O)O)cc1 [CCG, Cinaciguat] | considerable increase in P-VASP/VASP ratio | considerably decreased this effect | drastic reduction | drastic reduction
2 | – | 900 ± 600 nM | angiotensin-I (DRVYIHPFHL; Angiotensin-1; UniProt P01019 25-34, looked up) [Ang-I] | – | – | – | –
